In the supplement of paper PMC10307832:

Legend:
Experiment in all cases: relative viability (nuclei count vs DMSO), 5 days (fraction); higher = more cells survive
[1] = compound: C=CCn1c(=O)c2cnc(Nc3ccc(N4CCN(C)CC4)cc3)nc2n1-c1cccc(C(C)(C)O)n1 [Adavosertib] + Nc1ncn([C@H]2C[C@H](O)[C@@H](CO)O2)c(=O)n1 [Decitabine] (partner 2 µM)
Procedure, shortened: (§1)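 Nuclei were stained with Hoechst during a one-step fixation (final 0.05% Triton X-100, 1% formaldehyde, 1 ug/ml Hoechst) carried out 5 days after dosing, then counted on 4× images. The cells, lung cancer lines in 1536-well plates, had been dosed by pin tool the day after seeding with one drug alone or a fixed anchor-drug dose plus five library-drug doses (not always all listed) in √10 steps. Relative viability is the nuclei count in treated wells divided by that in vehicle wells, and each value is the median of duplicate plates.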

[2] = compound: C=CCn1c(=O)c2cnc(Nc3ccc(N4CCN(C)CC4)cc3)nc2n1-c1cccc(C(C)(C)O)n1 [Adavosertib] + COc1cccc2cc(-c3nc([C@H]4CC[C@H](C(=O)O)CC4)n4ncnc(N)c34)[nH]c12 [OSI-027] (partner 0.5 µM)
Procedure, shortened: as §1

[3] = compound: C=CCn1c(=O)c2cnc(Nc3ccc(N4CCN(C)CC4)cc3)nc2n1-c1cccc(C(C)(C)O)n1 [Adavosertib] + C[C@@H](Oc1cc(-c2cnn(C3CCNCC3)c2)cnc1N)c1c(Cl)ccc(F)c1Cl [Crizotinib] (partner 1 µM)
Procedure, shortened: as §1

[4] = compound: COc1nc(N)nc2c1ncn2[C@@H]1O[C@H](CO)[C@@H](O)[C@@H]1O [Nelarabine] + COc1cccc2cc(-c3nc([C@H]4CC[C@H](C(=O)O)CC4)n4ncnc(N)c34)[nH]c12 [OSI-027] (partner 0.5 µM)
Procedure, shortened: as §1

NCI-H1915
relative viability ([1]; first compound 0.01 µM): 0.262
relative viability ([1]; first compound 0.03162 µM): 0.251
relative viability ([1]; first compound 0.1 µM): 0.272
relative viability ([1]; first compound 0.3162 µM): 0.282
relative viability ([2]; first compound 0.01 µM): 0.677
relative viability ([2]; first compound 0.03162 µM): 0.606
relative viability ([2]; first compound 0.1 µM): 0.69
relative viability ([2]; first compound 0.3162 µM): 0.586
relative viability ([3]; first compound 0.01 µM): 0.941
relative viability ([3]; first compound 0.03162 µM): 0.812
relative viability ([3]; first compound 0.1 µM): 0.981
relative viability ([3]; first compound 0.3162 µM): 1
relative viability ([4]; first compound 0.01 µM): 0.675
relative viability ([4]; first compound 0.03162 µM): 0.666
relative viability ([4]; first compound 0.1 µM): 0.678
relative viability ([4]; first compound 0.3162 µM): 0.706
relative viability ([4]; first compound 1 µM): 0.684

ABC-1
relative viability ([1]; first compound 0.01 µM): 1.28
relative viability ([1]; first compound 0.03162 µM): 1.04
relative viability ([1]; first compound 0.1 µM): 1.17
relative viability ([1]; first compound 0.3162 µM): 0.959
relative viability ([2]; first compound 0.01 µM): 0.411
relative viability ([2]; first compound 0.03162 µM): 0.406
relative viability ([2]; first compound 0.1 µM): 0.405
relative viability ([2]; first compound 0.3162 µM): 0.419
relative viability ([3]; first compound 0.01 µM): 1.16
relative viability ([3]; first compound 0.03162 µM): 1.19
relative viability ([3]; first compound 0.1 µM): 1.05
relative viability ([3]; first compound 0.3162 µM): 1.31
relative viability ([4]; first compound 0.01 µM): 0.535
relative viability ([4]; first compound 0.03162 µM): 0.48
relative viability ([4]; first compound 0.1 µM): 0.38
relative viability ([4]; first compound 0.3162 µM): 0.44
relative viability ([4]; first compound 1 µM): 0.477

NCI-H358
relative viability ([1]; first compound 0.01 µM): 0.246
relative viability ([1]; first compound 0.03162 µM): 0.201
relative viability ([1]; first compound 0.1 µM): 0.188
relative viability ([1]; first compound 0.3162 µM): 0.193
relative viability ([2]; first compound 0.01 µM): 0.786
relative viability ([2]; first compound 0.03162 µM): 0.913
relative viability ([2]; first compound 0.1 µM): 0.637
relative viability ([2]; first compound 0.3162 µM): 0.326
relative viability ([3]; first compound 0.01 µM): 0.542
relative viability ([3]; first compound 0.03162 µM): 0.559
relative viability ([3]; first compound 0.1 µM): 0.507
relative viability ([3]; first compound 0.3162 µM): 0.309
relative viability ([4]; first compound 0.01 µM): 1
relative viability ([4]; first compound 0.03162 µM): 0.816
relative viability ([4]; first compound 0.1 µM): 0.767
relative viability ([4]; first compound 0.3162 µM): 1.09
relative viability ([4]; first compound 1 µM): 0.989

HCC-366
relative viability ([1]; first compound 0.01 µM): 0.369
relative viability ([1]; first compound 0.03162 µM): 0.35
relative viability ([1]; first compound 0.1 µM): 0.377
relative viability ([1]; first compound 0.3162 µM): 0.277
relative viability ([2]; first compound 0.01 µM): 0.964
relative viability ([2]; first compound 0.03162 µM): 1.02
relative viability ([2]; first compound 0.1 µM): 0.897
relative viability ([2]; first compound 0.3162 µM): 0.889
relative viability ([3]; first compound 0.01 µM): 0.498
relative viability ([3]; first compound 0.03162 µM): 0.568
relative viability ([3]; first compound 0.1 µM): 0.701
relative viability ([3]; first compound 0.3162 µM): 0.644
relative viability ([4]; first compound 0.01 µM): 1.3
relative viability ([4]; first compound 0.03162 µM): 0.737
relative viability ([4]; first compound 0.1 µM): 0.878
relative viability ([4]; first compound 0.3162 µM): 1.28
relative viability ([4]; first compound 1 µM): 0.973

EBC-1
relative viability ([3]; first compound 0.01 µM): 0.206
relative viability ([3]; first compound 0.03162 µM): 0.192
relative viability ([3]; first compound 0.1 µM): 0.206
relative viability ([3]; first compound 0.3162 µM): 0.175

NCI-H1650
relative viability ([1]; first compound 0.01 µM): 0.449
relative viability ([1]; first compound 0.03162 µM): 0.415
relative viability ([1]; first compound 0.1 µM): 0.564
relative viability ([1]; first compound 0.3162 µM): 0.27
relative viability ([2]; first compound 0.01 µM): 0.447
relative viability ([2]; first compound 0.03162 µM): 0.775
relative viability ([2]; first compound 0.1 µM): 0.563
relative viability ([2]; first compound 0.3162 µM): 0.384
relative viability ([3]; first compound 0.01 µM): 0.931
relative viability ([3]; first compound 0.03162 µM): 1.02
relative viability ([3]; first compound 0.1 µM): 1.04
relative viability ([3]; first compound 0.3162 µM): 1.17
relative viability ([4]; first compound 0.01 µM): 0.713
relative viability ([4]; first compound 0.03162 µM): 0.619
relative viability ([4]; first compound 0.1 µM): 0.458
relative viability ([4]; first compound 0.3162 µM): 0.767
relative viability ([4]; first compound 1 µM): 0.61

NCI-H1395
relative viability ([1]; first compound 0.01 µM): 0.702
relative viability ([1]; first compound 0.03162 µM): 0.754
relative viability ([1]; first compound 0.1 µM): 0.781
relative viability ([1]; first compound 0.3162 µM): 0.62
relative viability ([2]; first compound 0.01 µM): 0.69
relative viability ([2]; first compound 0.03162 µM): 0.727
relative viability ([2]; first compound 0.1 µM): 0.656
relative viability ([2]; first compound 0.3162 µM): 0.492
relative viability ([4]; first compound 0.01 µM): 0.611
relative viability ([4]; first compound 0.03162 µM): 0.587
relative viability ([4]; first compound 0.1 µM): 0.632
relative viability ([4]; first compound 0.3162 µM): 0.615
relative viability ([4]; first compound 1 µM): 0.634

SW 900
relative viability ([1]; first compound 0.01 µM): 0.442
relative viability ([1]; first compound 0.03162 µM): 0.464
relative viability ([1]; first compound 0.1 µM): 0.461
relative viability ([1]; first compound 0.3162 µM): 0.312
relative viability ([2]; first compound 0.03162 µM): 0.554
relative viability ([2]; first compound 0.1 µM): 0.494
relative viability ([2]; first compound 0.3162 µM): 0.436
relative viability ([4]; first compound 0.01 µM): 0.569
relative viability ([4]; first compound 0.03162 µM): 0.551
relative viability ([4]; first compound 0.1 µM): 0.565
relative viability ([4]; first compound 0.3162 µM): 0.452
relative viability ([4]; first compound 1 µM): 0.655

NCI-H1666
relative viability ([1]; first compound 0.01 µM): 0.629
relative viability ([1]; first compound 0.03162 µM): 0.616
relative viability ([1]; first compound 0.1 µM): 0.73
relative viability ([1]; first compound 0.3162 µM): 0.703
relative viability ([2]; first compound 0.01 µM): 0.797
relative viability ([2]; first compound 0.03162 µM): 0.851
relative viability ([2]; first compound 0.1 µM): 0.847
relative viability ([2]; first compound 0.3162 µM): 0.744
relative viability ([3]; first compound 0.01 µM): 0.926
relative viability ([3]; first compound 0.03162 µM): 0.963
relative viability ([3]; first compound 0.1 µM): 1.01
relative viability ([3]; first compound 0.3162 µM): 1.05
relative viability ([4]; first compound 0.01 µM): 0.874
relative viability ([4]; first compound 0.03162 µM): 0.955
relative viability ([4]; first compound 0.1 µM): 0.89
relative viability ([4]; first compound 0.3162 µM): 0.915
relative viability ([4]; first compound 1 µM): 0.908

COR-L23
relative viability ([1]; first compound 0.01 µM): 0.45
relative viability ([1]; first compound 0.03162 µM): 0.523
relative viability ([1]; first compound 0.1 µM): 0.45
relative viability ([1]; first compound 0.3162 µM): 0.277
relative viability ([2]; first compound 0.01 µM): 0.858
relative viability ([2]; first compound 0.03162 µM): 0.745
relative viability ([2]; first compound 0.1 µM): 0.717
relative viability ([2]; first compound 0.3162 µM): 0.349
relative viability ([3]; first compound 0.01 µM): 0.69
relative viability ([3]; first compound 0.03162 µM): 0.731
relative viability ([3]; first compound 0.1 µM): 0.797
relative viability ([3]; first compound 0.3162 µM): 0.304
relative viability ([4]; first compound 0.01 µM): 0.911
relative viability ([4]; first compound 0.03162 µM): 0.611
relative viability ([4]; first compound 0.1 µM): 0.854
relative viability ([4]; first compound 0.3162 µM): 0.878
relative viability ([4]; first compound 1 µM): 0.759
